Measurements as given in publication PMC7572458, “Multiple mutations in the EPSPS and ALS genes of Amaranthus hybridus underlie resistance to glyphosate and ALS inhibitors” (Scientific Reports, 2020).

Legend:
[1] = system: T1, ALS (acetolactate synthase); experiment: acetoin colorimetric (creatine/naphthol, […] nm), crude leaf extract; type: biochemical, Amaranthus hybridus; conditions: MR2 population, zygosity not given; pyruvate, MgCl2, FAD, pH 7.5, 37 °C, 1 h; stated gain; read-out: I50 (μM) ± SE
T1 construct: native, crude seedling leaf extract supernatant (15,000 g), not purified

[2] = biological target: T2, ALS (acetolactate synthase) (Amaranthus hybridus, UniProt A0A346FHL9); experiment: as above; type: biochemical; conditions: read-out: I50 (μM) ± SE
T2 construct: native, crude seedling leaf extract supernatant (15,000 g), not purified
T2 sequence (A0A346FHL9 81-669 limits assumed): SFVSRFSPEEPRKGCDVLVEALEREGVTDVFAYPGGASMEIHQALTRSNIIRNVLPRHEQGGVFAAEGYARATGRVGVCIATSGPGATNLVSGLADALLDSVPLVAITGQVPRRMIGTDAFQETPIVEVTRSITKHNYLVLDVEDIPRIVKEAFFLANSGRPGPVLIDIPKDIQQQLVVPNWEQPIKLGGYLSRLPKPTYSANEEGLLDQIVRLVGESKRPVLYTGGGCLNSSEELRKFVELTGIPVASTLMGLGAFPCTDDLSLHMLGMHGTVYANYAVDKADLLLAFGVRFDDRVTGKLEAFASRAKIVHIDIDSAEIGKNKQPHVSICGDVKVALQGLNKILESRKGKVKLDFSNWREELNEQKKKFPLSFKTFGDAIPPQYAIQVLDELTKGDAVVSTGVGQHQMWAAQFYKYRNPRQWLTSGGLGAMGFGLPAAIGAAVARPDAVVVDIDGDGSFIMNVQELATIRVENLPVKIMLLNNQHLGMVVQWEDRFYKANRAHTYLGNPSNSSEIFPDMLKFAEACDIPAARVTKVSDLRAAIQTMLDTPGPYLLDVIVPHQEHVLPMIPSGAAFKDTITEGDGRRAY

## COc1ncc(F)c2nc(S(=O)(=O)Nc3c(F)cccc3F)nn12 [florasulam]
[1]
  IC50: 56.5 ± 9 µM
[2]
  IC50: 17.4 ± 1.4 µM

## COc1cc(OC)nc(Oc2cccc(Oc3nc(OC)cc(OC)n3)c2C(=O)O)n1 [byspiribac]
[1]
  IC50: 2730 ± 80 µM
[2]
  IC50: 45.9 ± 8 µM

## COC(=O)c1ccccc1S(=O)(=O)NC(=O)N(C)c1nc(C)nc(OC)n1 [tribenuron-methyl]
[1]
  IC50: 273 ± 26 µM
[2]
  IC50: 47.5 ± 6.3 µM

## COCc1cnc(C2=NC(C)(C(C)C)C(=O)N2)c(C(=O)O)c1 (stereo not shown) [imazamox]
[1]
  IC50: 3170 ± 112 µM
[2]
  IC50: 117 ± 9.1 µM

## COc1nn(C(=O)NS(=O)(=O)c2ccccc2OC(F)(F)F)c(=O)n1C [flucarbazone]
[1]
  IC50: 145 ± 11.5 µM
[2]
  IC50: 1 ± 0.1 µM
